The source of these data is ChEMBL document CHEMBL1201862, “PubChem BioAssay data set” (2004).

Some test systems named below: HOP-92; OVCAR-3; HCT-116; SF-268; IGROV-1; SN12C; U-251; MOLT-4; NCI-H460; HCC 2998; Malme-3M; A498; HL-60; UO-31; RPMI-8226; LOX IMVI; KM12; CCRF-CEM; EKVX.
Holding throughout (assay): NCI-60 cell line screen, 48 h

Structures are written as SMILES.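 Tested at 5 concentrations; 48 h exposure; 96-well plates; endpoints linearly interpolated, else capped at highest concentration. GI50 marks 50% less growth.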 Active and inactive are the calls of the source. No stated cut-off is given here; in the data, active = GI50 up to about 1.1 µM and inactive = higher.

Take `CCOC1=NC(=O)CC(c2ccccc2)S1` (configuration not stated): the GI50 with HOP-92, in the assay with OVCAR-3, with HCT-116, in the assay on SF-268, with IGROV-1 and in the assay with SN12C was > 100 µM (inactive) each time. For the same compound, the GI50 with U-251 is 49.2 µM (inactive); in the assay on MOLT-4, > 100 µM (inactive); in the assay with NCI-H460, > 100 µM (inactive); with HCC 2998, > 100 µM (inactive); with Malme-3M, > 100 µM (inactive); in the assay with A498 it was > 100 µM (inactive). Further, the GI50 with HL-60 is > 100 µM (inactive); with UO-31, > 100 µM (inactive); in the assay on RPMI-8226, > 100 µM (inactive); in the assay on LOX IMVI, > 100 µM (inactive); in the assay on KM12, > 100 µM (inactive); with CCRF-CEM, 69.3 µM (inactive). In addition, the GI50 in the assay with EKVX is > 100 µM (inactive).
Turning to `COc1cc2c(cc1OC)-c1cc(OC)c(OC)cc1[C@H]1CN3CCC[C@@]3(O)C=C21`, the GI50 with HOP-92, in the assay on OVCAR-3, in the assay with HCT-116, in the assay with SF-268, in the assay with IGROV-1 and in the assay on SN12C was < 0.0001 µM (active) throughout. The GI50 in the assay on U-251 was < 0.0001 µM (active); with MOLT-4, < 0.0001 µM (active); with NCI-H460 it was < 0.0001 µM (active); with HCC 2998 it was 0.01 µM (active); with Malme-3M, < 0.0001 µM (active); with A498, < 0.0001 µM (active). Further, the GI50 in the assay on HL-60, in the assay on UO-31, in the assay with RPMI-8226, with LOX IMVI, in the assay with KM12 and in the assay with CCRF-CEM was < 0.0001 µM (active) each time. For the same compound, the GI50 in the assay on EKVX is < 0.0001 µM (active).
As to `CCSc1nnc(CSc2nc(-c3ccccc3)c(-c3ccccc3)[nH]2)n1-c1ccccc1`, the GI50 was 20.8 µM (inactive) in the assay on HOP-92; 15.9 µM (inactive) in the assay on OVCAR-3; 18.2 µM (inactive) in the assay on HCT-116; 23.3 µM (inactive) in the assay on SF-268; 20.9 µM (inactive) with IGROV-1; 15.8 µM (inactive) in the assay with SN12C. Moreover, the GI50 was 17.9 µM (inactive) in the assay on U-251; 15.2 µM (inactive) with MOLT-4; 18.9 µM (inactive) in the assay on NCI-H460; 20.8 µM (inactive) in the assay with HCC 2998; 20 µM (inactive) in the assay on Malme-3M; 18.5 µM (inactive) with A498. Moreover, the GI50 is 25.8 µM (inactive) in the assay on HL-60; 17.1 µM (inactive) in the assay on UO-31; 21.5 µM (inactive) in the assay on RPMI-8226; 22.9 µM (inactive) in the assay on LOX IMVI; 16.9 µM (inactive) with KM12; 17 µM (inactive) with CCRF-CEM. Further, the GI50 with EKVX is 24.4 µM (inactive).
Take `CN(C)CCCNC(=O)c1cc(NC(=O)c2cc(NS(=O)(=O)c3ccc4c(c3)C(=O)c3ccccc3C4=O)cn2C)cn1C`: the GI50 in the assay with HOP-92 was > 100 µM (inactive); in the assay on OVCAR-3 it was 95.5 µM (inactive); in the assay with HCT-116, > 100 µM (inactive); in the assay with SF-268, > 100 µM (inactive); in the assay on IGROV-1, > 100 µM (inactive); in the assay with SN12C, > 100 µM (inactive). The GI50 in the assay with U-251 is 81.3 µM (inactive); in the assay on MOLT-4 it was 24 µM (inactive); with NCI-H460 it was 45 µM (inactive); in the assay on HCC 2998, > 100 µM (inactive); in the assay with Malme-3M it was 28.4 µM (inactive); in the assay on A498 it was > 100 µM (inactive). For the same compound, the GI50 was 97.9 µM (inactive) in the assay with HL-60; > 100 µM (inactive) with UO-31; 21.5 µM (inactive) with RPMI-8226; 55.3 µM (inactive) in the assay with LOX IMVI; 80.7 µM (inactive) in the assay with KM12; 31.7 µM (inactive) with CCRF-CEM. Besides, in the assay on EKVX, the GI50 was > 100 µM (inactive).
Regarding `O=C(Cc1csc(-c2nc(CC(=O)NNc3ccccc3)cs2)n1)NNc1ccccc1`, the GI50 is > 100 µM (inactive) in the assay with HOP-92; > 100 µM (inactive) in the assay on OVCAR-3; 77.1 µM (inactive) in the assay with HCT-116; > 100 µM (inactive) in the assay on SF-268; > 100 µM (inactive) in the assay on IGROV-1; > 100 µM (inactive) in the assay on SN12C. Moreover, the GI50 in the assay on U-251 was > 100 µM (inactive); in the assay on MOLT-4, 39.4 µM (inactive); in the assay on NCI-H460, 23.5 µM (inactive); in the assay on HCC 2998 it was 43 µM (inactive); in the assay with Malme-3M, > 100 µM (inactive); in the assay on A498, > 100 µM (inactive). Also, the GI50 is 32 µM (inactive) in the assay with HL-60; > 100 µM (inactive) with UO-31; > 100 µM (inactive) in the assay with RPMI-8226; 19.6 µM (inactive) with LOX IMVI; > 100 µM (inactive) in the assay on KM12; 34.9 µM (inactive) in the assay on CCRF-CEM. Moreover, the GI50 with EKVX is > 100 µM (inactive).
As to `Cc1cc(Br)cc(C)c1NC(=O)C(=O)C(C(=O)c1ccncc1)C1OC(=O)c2ccccc21` (configuration not stated), the GI50 with HOP-92, with OVCAR-3, in the assay with HCT-116, with SF-268, in the assay with IGROV-1 and in the assay with SN12C was > 100 µM (inactive) in each case. The GI50 in the assay on U-251, in the assay with MOLT-4, in the assay on NCI-H460, in the assay on HCC 2998, in the assay with Malme-3M and in the assay on A498 was > 100 µM (inactive) in each case. Further, the GI50 in the assay on HL-60, in the assay with UO-31, with RPMI-8226, in the assay on LOX IMVI, in the assay with KM12 and in the assay with CCRF-CEM was > 100 µM (inactive) each time. The GI50 in the assay with EKVX was > 100 µM (inactive).
In the case of `CC(=O)/C(=C\c1ccc(Cl)c(Cl)c1)C(=O)C(C)CN(C)C` (configuration not stated), the GI50 in the assay with HOP-92 is 2.26 µM (inactive); in the assay on OVCAR-3 it was 4.1 µM (inactive); in the assay with HCT-116, 2.13 µM (inactive); in the assay on SF-268, 3.62 µM (inactive); in the assay with IGROV-1, 2.07 µM (inactive); in the assay on SN12C it was 6.73 µM (inactive). Further, the GI50 in the assay on U-251 is 3.26 µM (inactive); in the assay with MOLT-4, 2.19 µM (inactive); in the assay on NCI-H460, 12.5 µM (inactive); with HCC 2998, 2.39 µM (inactive); with Malme-3M it was 8.15 µM (inactive); with A498, 2.96 µM (inactive). Besides, the GI50 in the assay on HL-60 is 2 µM (inactive); with UO-31, 4.01 µM (inactive); in the assay on RPMI-8226 it was 1.32 µM (inactive); with LOX IMVI, 2.21 µM (inactive); in the assay on KM12, 2.18 µM (inactive); in the assay with CCRF-CEM, < 0.01 µM (active). In addition, the GI50 in the assay with EKVX is 14.2 µM (inactive).
`CCC(C)(O)c1cn(-c2ccc(Cl)cc2)nn1` (configuration not stated): the GI50 with HOP-92, in the assay on OVCAR-3, in the assay with HCT-116, with SF-268, with IGROV-1 and in the assay on SN12C was > 100 µM (inactive) each time. Moreover, the GI50 in the assay with U-251, in the assay on MOLT-4, with NCI-H460, in the assay on HCC 2998, with Malme-3M and with A498 was > 100 µM (inactive) each time. Besides, the GI50 in the assay with HL-60, in the assay with UO-31, with RPMI-8226, in the assay on LOX IMVI, with KM12 and with CCRF-CEM was > 100 µM (inactive) in each case. In the assay with EKVX, the GI50 is > 100 µM (inactive).
